From patent US10336762B2 (priority 2017, dated 2019) come the findings set out here.

One assay has as its system TNFα. Kind of assay: cells. Type of assay: cell-based, human. To be noted: Homo sapiens, Monocyte, LPS-stimulated human monocytes, TNFα content; read-out: EC50 TNF.
The target of the next assay is IRAK4 enzyme (Homo sapiens (Human), UniProt Q9NWZ3). In words: biochemical. Type of assay: biochemical. To be noted: IRAK4 enzyme, TR-FRET, 500 μM ATP. A general note: TR-FRET usually uses a lanthanide donor and a delayed reading to cut background.

pEC50, pIC50: −log10 of the molar value. Where only a bound is given, the exact number is not on record here.

Chain of IRAK4 enzyme (Q9NWZ3 whole entry): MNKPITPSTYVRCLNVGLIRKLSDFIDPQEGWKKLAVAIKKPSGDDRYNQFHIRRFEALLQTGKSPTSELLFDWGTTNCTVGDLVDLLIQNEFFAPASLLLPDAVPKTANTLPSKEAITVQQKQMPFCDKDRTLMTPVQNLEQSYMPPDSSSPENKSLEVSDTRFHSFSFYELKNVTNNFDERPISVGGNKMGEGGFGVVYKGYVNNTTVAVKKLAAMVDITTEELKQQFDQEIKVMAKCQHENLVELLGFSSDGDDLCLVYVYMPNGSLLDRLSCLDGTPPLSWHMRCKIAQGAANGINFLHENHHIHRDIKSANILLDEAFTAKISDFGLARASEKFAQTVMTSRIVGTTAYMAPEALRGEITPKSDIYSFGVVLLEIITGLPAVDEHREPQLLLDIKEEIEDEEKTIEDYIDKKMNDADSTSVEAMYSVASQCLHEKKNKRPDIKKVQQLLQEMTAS

As to `CC(C)(O)[C@H](F)CNC(=O)c1cnc(-c2ccc3cc(C#N)cnn23)cc1Nc1nnc(N2CCOCC2)o1` [Example 144, (R)-6-(3-cyanopyrrolo[1,2-b]pyridazin-7-yl)-N-(2-fluoro-3-hydroxy-3-methylbutyl)-4-((5-morpholino-1,3,4-oxadiazol-2-yl)amino) nicotinamide], the pEC50 in the assay on TNFα is < 5.00. The molecule also had a pIC50 at IRAK4 enzyme of 6.18.

Regarding `CC(C)(O)[C@H](F)CNC(=O)c1cnc(-c2ccc3cc(C#N)cnn23)cc1Nc1cncnc1` [Example 145, (R)-6-(3-cyanopyrrolo[1,2-b]pyridazin-7-yl)-N-(2-fluoro-3-hydroxy-3-methylbutyl)-4-(pyrimidin-5-ylamino)nicotinamide], the pEC50 in the assay on TNFα is 7.15. The pIC50 at IRAK4 enzyme is > 9.00.

Take `Cc1nnc(Nc2cc(-c3ccc4cc(C#N)cnn34)ncc2C(=O)NC[C@@H](F)C(C)(C)O)s1` [Example 146, (R)-6-(3-cyanopyrrolo[1,2-b]pyridazin-7-yl)-N-(2-fluoro-3-hydroxy-3-methylbutyl)-4-((5-methyl-1,3,4-thiadiazol-2-yl)amino)nicotinamide]: the pEC50 in the assay with TNFα is 6.93. This molecule also showed a pIC50 at IRAK4 enzyme of 9.00.

Regarding `CC(C)(O)[C@H](F)CNC(=O)c1cnc(-c2ccc3cc(C#N)cnn23)cc1N[C@H]1[C@@H]2COC[C@@H]21` [Example 147, 4-(((1R,5S,6r)-3-oxabicyclo[3.1.0]hexan-6-yl)amino)-6-(3-cyano-pyrrolo[1,2-b]pyridazin-7-yl)-N-((R)-2-fluoro-3-hydroxy-3-methylbutyl)nicotinamide], the pEC50 with TNFα is 7.33. Also, at IRAK4 enzyme, the pIC50 is > 9.00.

As for `CC(C)(O)[C@H](F)CNC(=O)c1cnc(-c2ccc3cc(C#N)cnn23)cc1N[C@@H]1[C@@H]2COC[C@@H]21` [Example 148, 4-(((1R,5S,6s)-3-oxabicyclo[3.1.0]hexan-6-yl)amino)-6-(3-cyano-pyrrolo[1,2-b]pyridazin-7-yl)-N-((R)-2-fluoro-3-hydroxy-3-methylbutyl)nicotinamide], the pEC50 in the assay with TNFα was 6.69. On IRAK4 enzyme, this molecule showed a pIC50 of 8.70.

Regarding `CC(C)Nc1cc(-c2ccc3cc(C#N)cnn23)ncc1C(=O)NC1CC2(CC(O)C2)C1` (stereo not drawn) [Example 149, 6-(3-cyanopyrrolo[1,2-b]pyridazin-7-yl)-N-(6-hydroxyspiro[3.3]heptan-2-yl)-4-(isopropylamino) nicotinamide], in the assay on TNFα, the pEC50 is 6.83. This molecule also showed a pIC50 against IRAK4 enzyme of 9.00.

Turning to `CC(C)(O)[C@H](F)CNC(=O)c1cnc(-c2ccc3cc(C#N)cnn23)cc1N[C@@H]1CCOC[C@H]1F` [Example 150, 6-(3-cyanopyrrolo[1,2-b]pyridazin-7-yl)-N-((R)-2-fluoro-3-hydroxy-3-methylbutyl)-4-(((3S,4R)-3-fluorotetrahydro-2H-pyran-4-yl)amino)nicotinamide], in the assay on TNFα, the pEC50 was 7.29. In addition, the pIC50 at IRAK4 enzyme is > 9.00.

Turning to `CC(C)(O)[C@H](F)CNC(=O)c1cnc(-c2ccc3cc(C#N)cnn23)cc1N[C@H]1CCOC[C@@H]1F` [Example 151, 6-(3-cyanopyrrolo[1,2-b]pyridazin-7-yl)-N-((R)-2-fluoro-3-hydroxy-3-methylbutyl)-4-(((3R,4S)-3-fluorotetrahydro-2H-pyran-4-yl)amino) nicotinamide], the pEC50 in the assay with TNFα is 7.02. On IRAK4 enzyme, the pIC50 was > 9.00.

Consider `CC(C)Nc1cc(-c2ccc3cc(C#N)cnn23)ncc1C(=O)NC1CC2(CC(=O)C2)C1` [Example 152, 6-(3-cyanopyrrolo[1,2-b]pyridazin-7-yl)-4-(isopropylamino)-N-(6-oxospiro[3.3]heptan-2-yl)nicotinamide], for which, in the assay with TNFα, the pEC50 was 6.72. The pIC50 against IRAK4 enzyme is 8.70.

Take `CC(C)Nc1cc(-c2ccc3cc(C#N)cnn23)ncc1C(=O)NC1CC2(C1)CC(C)(O)C2` (stereo not drawn) [Example 153, 6-(3-cyanopyrrolo[1,2-b]pyridazin-7-yl)-N-(6-hydroxy-6-methylspiro[3.3]heptan-2-yl)-4-(isopropylamino)nicotinamide]: the pEC50 in the assay with TNFα was 7.04. In addition, the pIC50 on IRAK4 enzyme is > 9.00.

On to `CC1(O)CCC(Nc2cc(-c3ccc4cc(C#N)cnn34)ncc2C(=O)NC[C@@H](F)C(C)(C)O)CC1` (stereo partly drawn) [Example 154, 6-(3-cyanopyrrolo[1,2-b]pyridazin-7-yl)-N-((R)-2-fluoro-3-hydroxy-3-methylbutyl)-4-(((1s,4S)-4-hydroxy-4-methyl-cyclohexyl)amino)nicotinamide], for which the pEC50 with TNFα was 7.47. For the same molecule, the pIC50 against IRAK4 enzyme was > 9.00.

Consider `CN1CCC(Nc2cc(-c3ccc4cc(C#N)cnn34)ncc2C(=O)NC[C@@H](F)C(C)(C)O)CC1=O` (stereo partly drawn) [Example 155, 6-(3-cyanopyrrolo[1,2-b]pyridazin-7-yl)-N-((R)-2-fluoro-3-hydroxy-3-methylbutyl)-4-((1-methyl-2-oxopiperidin-4-yl)amino) nicotinamide], for which the pEC50 with TNFα was 6.82. In addition, the pIC50 on IRAK4 enzyme is 9.00.

Turning to `CC(C)(O)[C@H](F)CNC(=O)c1cnc(-c2ccc3cc(C#N)cnn23)cc1NC1CCN(C(=O)c2ccoc2)CC1` [Example 156, (R)-6-(3-cyanopyrrolo[1,2-b]pyridazin-7-yl)-N-(2-fluoro-3-hydroxy-3-methylbutyl)-4-((1-(furan-3-carbonyl)piperidin-4-yl)amino)nicotinamide], the pEC50 in the assay with TNFα is 6.75. In addition, the pIC50 against IRAK4 enzyme was 8.40.

Regarding `CC(C)Nc1cc(-c2ccc3cc(C#N)cnn23)ncc1C(=O)NCc1ccc(=O)[nH]c1` [Example 157, 6-(3-cyanopyrrolo[1,2-b]pyridazin-7-yl)-4-(isopro-pylamino)-N-((6-oxo-1,6-dihydropyridin-3-yl)methyl) nicotinamide], in the assay on TNFα, the pEC50 was 6.30. Also, the pIC50 against IRAK4 enzyme was 7.64.

With `COC1(C)CN(C(=O)C23CCC(Nc4cc(-c5ccc6cc(C#N)cnn56)ncc4C(=O)NC[C@@H](F)C(C)(C)O)(CC2)CC3)C1` [Example 158, (R)-6-(3-cyanopyrrolo[1,2-b]pyridazin 7-yl)-N-(2-fluoro-3-hydroxy-3-methylbutyl)-4-((4-(3-methoxy-3-methylazetidine-1-carbonyl)bicyclo[2.2.2]octan-1-yl)amino)nicotinamide], the pEC50 in the assay on TNFα was 7.00. At IRAK4 enzyme, this molecule showed a pIC50 of 8.70.

As to `CC1(O)CN(C(=O)C23CCC(Nc4cc(-c5ccc6cc(C#N)cnn56)ncc4C(=O)NC[C@@H](F)C(C)(C)O)(CC2)CC3)C1` [Example 159, (R)-6-(3-cyanopyrrolo[1,2-b]pyridazin-7-yl)-N-(2-fluoro-3-hydroxy-3-methylbutyl)-4-((4-(3-hydroxy-3-methylazetidine-1-carbonyl)bicyclo[2.2.2]octan-1-yl)amino)nicotinamide], in the assay with TNFα, the pEC50 was 6.74. For the same molecule, the pIC50 on IRAK4 enzyme is 9.00.

For `CC(C)(O)[C@H](F)CNC(=O)c1cnc(-c2ccc3cc(C#N)cnn23)cc1N[C@H]1C[C@H](OC(=O)NC2CC2)C1` [Example 160, (1R,3r)-3-((2-(3-cyano-pyrrolo[1,2-b]pyridazin-7-yl)-5-(((R)-2-fluoro-3-hydroxy-3-methylbutyl)carbamoyl)pyridin-4-yl)amino)cyclobutyl cyclopropylcarbamate], the pEC50 in the assay with TNFα was < 5.00. Besides, the pIC50 against IRAK4 enzyme was 6.33.

`CN(C)C(=O)O[C@H]1C[C@H](Nc2cc(-c3ccc4cc(C#N)cnn34)ncc2C(=O)NC[C@@H](F)C(C)(C)O)C1` [Example 161, (1R,3r)-3-((2-(3-cyano-pyrrolo[1,2-b]pyridazin-7-yl)-5-(((R)-2-fluoro-3-hydroxy-3-methylbutyl)carbamoyl)pyridin-4-yl)amino)cyclobutyl dimethylcarbamate]: the pEC50 in the assay with TNFα was < 5.00. In addition, the pIC50 against IRAK4 enzyme was 6.00.

As to `CNC(=O)O[C@H]1C[C@H](Nc2cc(-c3ccc4cc(C#N)cnn34)ncc2C(=O)NC[C@@H](F)C(C)(C)O)C1` [Example 162, (1R,3r)-3-((2-(3-cyano-pyrrolo[1,2-b]pyridazin-7-yl)-5-(((R)-2-fluoro-3-hydroxy-3-methylbutyl)carbamoyl)pyridin-4-yl)amino)cyclobutyl methylcarbamate], the pEC50 with TNFα is < 5.00. Besides, on IRAK4 enzyme, the pIC50 is 6.42.

With `CC(C)(O)[C@H](F)CNC(=O)c1cnc(-c2ccc3cc(C#N)cnn23)cc1N[C@H]1CC[C@H](OC(=O)NC2CC2)CC1` [Example 163, (1R,4r)-4-((2-(3-cyano-pyrrolo[1,2-b]pyridazin-7-yl)-5-(((R)-2-fluoro-3-hydroxy-3-methylbutyl)carbamoyl)pyridin-4-yl)amino)cyclohexyl cyclopropylcarbamate], the pEC50 with TNFα was < 5.00. Also, the pIC50 at IRAK4 enzyme was 7.05.

With `CN(C)C(=O)O[C@H]1CC[C@H](Nc2cc(-c3ccc4cc(C#N)cnn34)ncc2C(=O)NC[C@@H](F)C(C)(C)O)CC1` [Example 164, (1R,4r)-4-((2-(3-cyano-pyrrolo[1,2-b]pyridazin-7-yl)-5-(((R)-2-fluoro-3-hydroxy-3-methylbutyl)carbamoyl)pyridin-4-yl)amino)cyclohexyl dimethylcarbamate], in the assay with TNFα, the pEC50 is 5.00. Moreover, the pIC50 at IRAK4 enzyme was 6.88.

`CNC(=O)O[C@H]1CC[C@H](Nc2cc(-c3ccc4cc(C#N)cnn34)ncc2C(=O)NC[C@@H](F)C(C)(C)O)CC1` [Example 165, (1R,4r)-4-((2-(3-cyano-pyrrolo[1,2-b]pyridazin-7-yl)-5-(((R)-2-fluoro-3-hydroxy-3-methylbutyl)carbamoyl)pyridin-4-yl)amino)cyclohexyl methylcarbamate]: the pEC50 in the assay on TNFα was < 5.00. On IRAK4 enzyme, this molecule showed a pIC50 of 7.23.

As to `CC(C)(O)[C@H](F)CNC(=O)c1cnc(-c2ccc3cc(C#N)cnn23)cc1N[C@H]1CC[C@@H](OC(=O)NC2CC2)CC1` [Example 166, (1S,4s)-4-((2-(3-cyano-pyrrolo[1,2-b]pyridazin-7-yl)-5-(((R)-2-fluoro-3-hydroxy-3-methylbutyl)carbamoyl)pyridin-4-yl)amino)cyclohexyl cyclopropylcarbamate], the pEC50 in the assay on TNFα is < 5.00. The same molecule had a pIC50 at IRAK4 enzyme of 6.13.

Turning to `CN(C)C(=O)O[C@H]1CC[C@@H](Nc2cc(-c3ccc4cc(C#N)cnn34)ncc2C(=O)NC[C@@H](F)C(C)(C)O)CC1` [Example 167, (1S,4s)-4-((2-(3-cyano-pyrrolo[1,2-b]pyridazin-7-yl)-5-(((R)-2-fluoro-3-hydroxy-3-methylbutyl)carbamoyl)pyridin-4-yl)amino)cyclohexyl dimethylcarbamate], in the assay on TNFα, the pEC50 is < 5.00. The molecule also had a pIC50 against IRAK4 enzyme of 6.00.

As a reminder, the pEC50 is the negative decadic logarithm of the EC50, by convention in mol/L. Broadly, the pIC50 is the IC50 on a negative log10 scale, so that one unit is a factor of ten. The low end stands for a high IC50, the high end for a low IC50.
